Measured values: patent US5385918A, “Aminomethylene-peptides as immunosuppressants” (Miles Inc., priority 1993, dated 1995)

Tests used:
human T-cells = assay: Suppression of Human T-Cell Proliferation Assay (PHA-stimulated, [3H]-thymidine incorporation); format: cell-based; conditions: inhibition of [3H]-thymidine incorporation of PHA-stimulated purified human T-cells, 72 hours
Excerpt: Inhibition of mitogen-induced T-cell proliferation can be used to profile immunosuppressive activity of test compounds. In the description of the assay which follows, mitogen-induced T-cell proliferation was used to test the inhibitory potencies of select compounds of the present invention.
In an assay similar to that described by Bradley in Mishell et al. (Eds.), 1980, Selected Methods in Cellular Immunology, pp 156-161, W. H. Freeman & Co., San Fransisco, Calif., T-cells were stimulated by incubation with phytohemagglutinin (PHA) which binds to cell surface molecules, including the T-cell receptor. This stimulation results in proliferation which can be measured by incorporation of [^3 H]-thymidine into cellular DNA.
Fresh LeukoPaks were obtained from the New York Blood Center, New York, N.Y. The cells, including erythrocytes and leukocytes, were diluted with Hank's Balanced Salt Solution (HBSS) (GIBCO, Grand Island, N.Y.) and layered over Lymphoprep (Nycomed Pharma AS, Oslo, Norway) in sterile 50 ml conical centrifuge tubes. Lymphocytes were isolated at the Hank's/Nycomed interface after centrifugation at 2000×g, 4° C. for 15 min. The lymphocytes were washed with Minimal Essential Medium (GIBCO) containing 2% fetal bovine serum (FBS) (Sigma Chemical Co., St. Louis, Mo.), 1% HEPES buffer (GIBCO) and 1% Penicillin-Stretomycin solution (GIBCO).
T-cells were further purified essentially by sheep erythrocyte (SRBC) rosetting as described by Morimoto et al., 1983, J. Immunol. 130:157. The isolated lymphocytes were adjusted to 2×10^7 cells/ml and 5 ml aliquots of the cell suspension were incubated for 10 minutes at room temperature with 5 ml of a 5% SRBC (Cappel, Organon Technika Corp., West Chester, Pa.) suspension. The cells were gently pelleted by centrifugation at 300 rpm for 10 minutes, followed by a 1 hour incubation at room temperature to allow rosette formation. The cells were gently resuspended,layered over Lymphoprep and centrifuged for 30 minutes at 500×g. The pellet, containing rosetted T-cells and SRBC was treated with ice cold buffered ammonium chloride (GIBCO) to lyse the erythrocytes. T-cells were washed twice with HBSS.
Purified T-cells were resuspended at 2×10^6 cells/ml in complete culture medium composed of RPMI-1640 (Whittaker Bioproducts, Walkerville, Md.) with 10% FBS (Sigma), 2 mM L-glutamine (GIBCO), 1% Penicillin-Streptomycin (GIBCO) and 15 mM HEPES (GIBCO). In 96-well plates (Becton Dickinson, Lincoln Park, N.J.), 0.1 ml aliquots of T-cell suspension were mixed with 0.05 ml of 40 μg/ml PHA-M (Sigma). The compounds of this invention were dissolved in dimethylsulfoxide at 10 mM and various dilutions in complete medium were added in duplicate wells (0.05 ml/well). The plates were incubated at 37° C. in a humidified atmosphere of 5% carbon dioxide and 95% air for 72 hours.
Proliferation was assessed by measurement of [^3 H]-thymidine incorporation. During the last 6 hours of incubation, the cells were pulse labelled with 1 μCi/well of [^3 H]-thymidine (New England Nuclear, Boston, Mass.). The cells were harvested onto glass fiber paper using a plate harvester and the radioactivity incorporated into cellular DNA corresponding to individual wells was measured by standard liquid scintillation counting methods. The mean counts per minute (CPM) of replicate wells was calculated and linear regression analysis of mean CPM versus compound concentration was used to determine the concentration of compound which would inhibit [^3 H]-thymidine incorporation of T-cells by 50% (IC50).

FKBP = FKBP (Homo sapiens, UniProt P62942); assay: PPIase Inhibition Assay; format: biochemical; conditions: inhibition of PPIase activity of FKBP, substrate Succinyl-Ala-Phe-Pro-Phe-para-nitroanilide
Protocol: This assay follows in principle the procedure described in Kofron et al., 1991, Biochemistry 30:6127. The three main reagents used are PPIase, a substrate for PPIase, and a selected inhibitor compound of the present invention. The basic principle behind this assay is the conversion of the cis isomer of the substrate to the trans form, which conversion is catalyzed by PPIase. Essentially, inhibition of this PPIase activity is measured for the selected compounds. A peptide chymotrypsin substrate containing a proline in the P2 position is only cleaved by chymotrypsin when the Phe-Pro bond is in the trans isomeric configuration. In the presence of excess chymotrypsin, all of the trans peptide isomers are cleaved within approximately five seconds, leaving only cis forms.
The cis peptide will spontaneously convert to the trans isomer at a slow rate. The cis to trans conversion is catalyzed by isomerases at a much faster rate than this spontaneous conversion. Proteins with PPIase activity are examples of such isomerases. After isomerization, the peptide is cleaved by chymotrypsin releasing p-nitroaniline which can be monitored at 390 nm. The rate of release is then calculated using a first order rate plus offset equation utilizing the ENZFITTER program (Leatherbarrow, BIOSOFT, Cambridge, United Kingdom).
In a plastic cuvette are added 950 ul of ice cold assay buffer (25 mM HEPES, pH 7.8, 100 mM NaCl), 10 uL of FKBP (2.5 uM in 10 mM Tris-Cl pH 7.5, 100 mM NaCl, 1 mM dithiothreitol), 25 ul of chymotrypsin (50 mg/ml in 1 mM HCl) and 10 ul of the test compound at various concentrations in dimethyl sulphoxide. The reaction is initiated by addition of 5 ul of substrate (Succinyl-Ala-Phe-Pro-Phe-para-nitroanilide, 5 mg/ml in 235 mM LiCl in trifluoroethanol).
The absorbance at 390 nm versus time is monitored for 90 sec using a Beckman DU70 spectrophotometer. The absorbance versus time data files are transferred to an IBM XT computer and the rate constants determined using the commercial Enzfitter program. For each set of data, the uncatalyzed rate of conversion is measured and the uninhibited enzymatic rate determined. The data are expressed as % Inhibition and are calculated as follows: [formula] where kobs is the rate in the presence of a selected test compound, kuncat is the rate in the absence of enzyme, and kuninh is the rate in the presence of enzyme and absence of inhibitor. Data are plotted as percent inhibition versus concentration of inhibitor. The values of the concentration of inhibitor required for 50% inhibition of enzyme activity (IC50) were determined by nonlinear least squares regression analysis.

Sequence of FKBP (P62942 whole entry): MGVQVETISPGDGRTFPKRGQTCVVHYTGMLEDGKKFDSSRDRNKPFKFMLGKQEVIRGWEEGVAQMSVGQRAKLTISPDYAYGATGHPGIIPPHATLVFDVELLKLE

Row | IC50 (FKBP) | Structure (SMILES) | IC50 (human T-cells)
1 | 2500 nM | CC[C@H](C)[C@H](NC(=O)[C@@H]1CCCN1C[C@H](CC(C)C)NC(=O)[C@H](CC(N)=O)NC(=O)[C@@H](N)Cc1ccccc1)C(=O)OCc1ccccc1 [Example 15, 1-[1-[2-(S)-[[1-[2-(S)-Amino-1-Oxo-3-phenylpropyl]-L-asparaginyl]amino]-4-methylpentyl]-L-proline]-L-isoleucine Phenylmethyl Ester] | 
2 | 900 nM | CC[C@H](C)[C@H](NC(=O)[C@@H]1CCCN1C[C@H](CC(C)C)NC(=O)[C@H](CC(N)=O)NC(=O)OC(C)(C)C)C(=O)OCc1ccccc1 [Example 10, 1-[1-[2-(S)-[[4-Amino-2-(S)-[[(1,1-dimethylethoxy)-carbonyl]amino]-1,4-dioxobutyl]amino]-4-methylpentyl]-L-proline]-L-isoleucine Phenylmethyl Ester] | 30000 nM
3 | 3000 nM | CC[C@H](C)[C@H](NC(=O)[C@@H]1CCCN1CC(CC(C)C)NC(=O)OC(C)(C)C)C(=O)OCc1ccccc1 (stereo partly drawn) [Example 5, 1-[1-[2-[[(1,1-Dimethylethoxy)carbonyl]amino]-4-methylpentyl]-L-proline]-L- Isoleucine Phenylmethyl Ester] | 27000 nM
4 | 1300 nM | CC[C@H](C)[C@H](NC(=O)[C@@H]1CCCN1C[C@H](CC(C)C)NC(=O)[C@@H](N)CC1CCCCC1)C(=O)OCc1ccccc1 [Example 13, 1-[1-[2-(S)-[[2-(S)-amino-3-cyclohexyl-1-oxopropyl]-amino]-4-methylpentyl]-L-proline]-L-isoleucine Phenylmethyl Ester] | < 6000 nM
5 | 2400 nM | CC[C@H](C)[C@H](NC(=O)[C@@H]1CCCN1C[C@H](CC(C)C)NC(=O)[C@@H](N)CC(N)=O)C(=O)OCc1ccccc1 [Example 12] | < 6000 nM
6 | 8400 nM | CC[C@H](C)[C@H](NC(=O)[C@@H]1CCCN1CC(CC(C)C)NC(=O)[C@H](CC1CCCCC1)NC(=O)OC(C)(C)C)C(=O)OCc1ccccc1 (stereo partly drawn) [Example 11, 1-[1-[2-[[3-Cyclohexyl-2-(S)-[[(1,1-dimethylethoxy)-carbonyl]amino]-1-oxopropyl]amino]-4-methylpentyl]-L-proline]-L-isoleucine Phenylmethyl Ester] | < 6000 nM

The next lines start with the molecule.

Row | Structure (SMILES) | IC50 (FKBP) | IC50 (human T-cells)
7 | CC[C@H](C)[C@H](NC(=O)[C@@H]1CCCCN1C[C@@H](NC(=O)C(C)(C)C)[C@@H](C)CC)C(=O)NCc1ccccc1 [Example 21, 1-[1-[2-(S)-[(2,2-Dimethyl-propionyl)-amino]-3-(S)-methylpentyl]-L-homoproline]-L-isoleucine benzylamide] |  | 720 nM
8 | CC[C@H](C)[C@H](NC(=O)[C@@H]1CCCCN1C[C@@H](NC(=O)CC(C)C)[C@@H](C)CC)C(=O)NCc1ccccc1 [Example 23, 1-[1-[2-(S)-[(3-methyl-butyryl)-amino]-3-(S)-methylpentyl]-L-homoproline]-L -isoleucine benzylamide] |  | 900 nM
9 | CCCC(=O)N[C@H](CN1CCCC[C@H]1C(=O)N[C@H](C(=O)NCc1ccccc1)[C@@H](C)CC)[C@@H](C)CC [Example 24] |  | 1700 nM
10 | CC[C@H](C)[C@H](NC(=O)[C@@H]1CCCCN1C[C@@H](NC(=O)CC(C)(C)C)[C@@H](C)CC)C(=O)NCc1ccccc1 [Example 22, 1-[1-[2-(S)-[(3,3-dimethyl-butyryl)-amino]-3-(S)-methylpentyl]-L-homoproline]-L-isoleucine benzylamide] |  | 1000 nM
11 | COC(=O)[C@H](Cc1ccc(OC)cc1)N(C)C(=O)[C@@H]1CCCN1C[C@H](CC(C)C)NC(=O)OC(C)(C)C [Example 9, 1-Methyl-1-[1-[2-(S)-[[(1,1-dimethylethoxy)carbonyl]amino]-4-methylpentyl]-L-proline]-L-Tyrosine(O-Methyl)Methyl Ester] | > 50000 nM | 16000 nM
